Consider three molecules from ChEMBL document CHEMBL1132929 (J Med Chem, 2000).

Peptide text beside a SMILES is read from it.

For this assay, the target named is Substance-P receptor (Rana catesbeiana). The assay is described as follows: SP-induced [Ca2+] mobilization in CHO cells expressing bullfrog Tachykinin receptor 1.
The term EC50 denotes the concentration that produces a half-maximal response. High values mean a need for much substance, low ones an effect from little substance. As to `CSCC[C@H](NC(=O)[C@H](CC(C)C)NC(=O)CNC(=O)[C@H](Cc1ccc(O)cc1)NC(=O)[C@H](Cc1ccccc1)NC(=O)[C@H](CO)NC(=O)[C@H](CC(=O)O)NC(=O)[C@H](CO)NC(=O)[C@H](CCCCN)NC(=O)[C@@H](N)Cc1ccc(O)cc1)C(N)=O` (H-YKSDSFYGLM-NH2), the EC50 is 14 nM.

`CSCC[C@H](NC(=O)[C@H](CC(C)C)NC(=O)CNC(=O)[C@H](Cc1ccc(O)cc1)NC(=O)[C@H](Cc1ccccc1)NC(=O)[C@H](CCCNC(=N)N)NC(=O)[C@H](CC(=O)O)NC(=O)[C@@H]1CCCN1C(=O)[C@H](CO)NC(=O)[C@@H]1CCCN1C(=O)[C@@H](N)CCCCN)C(N)=O` (H-KPSPDRFYGLM-NH2) returned an EC50 of 0.6 nM.

`CC[C@H](C)[C@H](NC(=O)[C@H](Cc1ccccc1)NC(=O)[C@H](CO)NC(=O)[C@H](C)NC(=O)[C@@H]1CCCN1C(=O)[C@H](CC(N)=O)NC(=O)[C@@H](N)Cc1cnc[nH]1)C(=O)NCC(=O)N[C@@H](CC(C)C)C(=O)N[C@@H](CCSC)C(N)=O` (H-HNPASFIGLM-NH2) displayed an EC50 of 14 nM.
